In patent US4636513A, “Isoxazole derivatives and medicaments containing these compounds” (Hoechst Aktiengesellschaft, priority 1984, dated 1987):
≈ marks a conversion by molar mass, not a printed value. Where two headings read alike, the source gives them in different places.

How the values were obtained:
[1] = tested on: mice; experiment: Acetic acid extension test on mice (analgesic action); conditions: Mus musculus, po; for responders at 158 mg/kg: read-out: Animals which showed analgesic effect in % after an oral dose of 158 mg/kg; for ED50: read-out: Analgesic action ED50, acetic acid extension test (Mouse)
Description: (§1) (a) Acetic acid extension test on mice in accordance with the method of R. Koster et al., Fed. Prod.
(§2) Female mice of a N.M.R.I. strain with a body weight (BW) of between 21 and 28 g were used as the experimental animals. Groups of in each case 12 animals received 0.1 ml/10 g BW of a 0.6% strength acetic acid solution, injected intraperitoneally. The test substances were administered 30 minutes beforehand. Immediately after the acetic acid injection, the animals were placed individually and the typical extension movements occurring within 15 minutes were counted, these consisting of brief flexing of the abdominal muscles with withdrawal of the sides and subsequent extension of the rear of the body and of at least one rear extremity.
(§3) The test substances were administered orally in a volume of 10 ml/kg BW in 1% strength aqueous carboxymethylcellulose (CMC) suspension.

[2] = as above; conditions: mouse, in vivo, po
Description: as §1, §2, §3

[3] = Modified Randall-Selitto hyperalgesia test on rats (analgesic action); conditions: rat, in vivo, po
Description: (§4) (b) Modified Randall-Selitto hyperalgesia test on rats in accordance with the method of Atkinson et al., J. Pharm. Pharmac.
(§5) Male Sprague-Dawley rats with a body weight of 200 to 300 g were used as the experimental animals. The experimental animals were given a subplantar injection of 0.2 ml of brewer's yeast suspension (40% of yeast in 0.9% strength NaCl solution) into the left hind paw under mild ether anaesthesia. After 5 hours, the gait of the animals over a metal grating was evaluated according to the following scale:
(§6) The evaluation was effected by determining the percentage of animals evaluated with stage 1 or 0.5, two animals given 0.5 being regarded as showing an analgesic effect.
(§7) The test substances were administered orally, to animals which had been fasted for 15 hours, in CMC suspension in a volume of 10 ml/kg BW two hours before the evaluation of the animals. In order to exclude subjective influences, the evaluation was performed by two people independently of one another and without knowledge of the pretreatment of the animals (n=10/dose). The ED50 values were determined with the aid of linear regression in accordance with the method of Fieller and Sidak.

[4] = tested on: rats; experiment: as above; conditions: Rattus norvegicus, po, 2 h, read-out: Analgesic action ED50, Randall-Selitto test (Rat)
Description: as §4, §5, §6, §7

[5] = Gastrointestinal ulcerogenicity; type: in vivo, rat (male Sprague-Dawley); conditions: in vivo, po, rat
Description: (§8) In this test on male Sprague-Dawley rats with a body weight of between 200 and 300 g, an increased sensitivity of the gastric mucosa toward the ulcerogenic action of non-steroid antiflammatories was induced by hunger stress (withdrawal of food for a total of 72 hours).
(§9) 48 hours before administration of the test substances, the food was withdrawn from the animals until the end of the experiment, the animals having free access to drinking water.
(§10) 24 hours after oral administration of the product, the animals were sacrificed and the stomachs were removed, cut along the lesser curvature, cleaned under running water and inspected for lesions in the mucous membrane. All the macroscopically visible lesions of the mucosa in the glandular atomach were regarded as ulcers. The proportion of animals with ulcers per dose was determined.
(§11) The test substances were administered as a solution in CMC suspension in a volume of 1 ml/100 g of body weight. The UD50 (dose at which 50% of the animals had ulcers) was determined with the aid of Probit analysis and the confidence range was determined by the method of Fieller.

[6] = in vivo; set-up: species or system rat (male and female Wistar); conditions: po, rat, administered orally, read-out: Toxicity LD50
Description: The animals were used in the experiment after being fasted for about 18 hours and only received food again five hours after administration of the product. After a three-week observation period, they were sacrificed with chloroform and autopsied. The organs were assessed macroscopically. The test compounds were dissolved in 1% strength CMC suspension and administered to the rats through a stomach tube in a volume of 5 ml/kg BW.

[7] = tested on: prostaglandin synthetases; conditions: cited from earlier work
[8] = tested on: rats; experiment: Antipyretic action, yeast fever test on rats; type: in vivo, rat (female Sprague-Dawley); conditions: for Reduction in body temperature at 60 min / Reduction in body temperature at 120 min / Reduction in body temperature at 180 min / Reduction in body temperature at 240 min: rat, orally
Description: The investigations were carried out on female Sprague-Dawley rats with a body weight of 150 g and fed on drinking water ad libitum and a standard diet. […] The body temperature was measured rectally by means of second thermometers at room temperature (24° C.). The number of animals was n=6 per dose. The average reduction in body temperature in comparison with the simultaneous value of the untreated control animals was recorded.

[9] = tested on: gastric mucosa; experiment: Gastrointestinal ulcerogenicity; type: in vivo, rat (male Sprague-Dawley); conditions: doses of up to 400 mg/kg, rat, oral
Description: as §8, §9, §10, §11

[10] = tested on: isolated pig ureter; experiment: Inhibition of potassium chloride-induced spasms on the isolated pig ureter
Description: In contrast, the compounds of the formula I exert a significant inhibiting action in this experimental design.

[11] = biliary, gastrointestinal and urogenital tract; cited from earlier work

For Cc1noc(C)c1C(=O)N1CCCCC1 [3,5-Dimethyl-4-isoxazole-carboxylic acid piperidide, reference compound], the responders at 158 mg/kg [1] was 25%.

For CCN(CC)C(=O)c1cnoc1C [5-Methyl-4-isoxazolecarboxylic acid N,N--diethylamide, reference compound], the responders at 158 mg/kg [1] was 25%.

Work on CC(=O)Oc1ccccc1C(=O)O [Acetylsalicylic acid, reference compound] yielded a selectivity ratio [2] of 10.9, an ED50 [1] of 138 mg/kg and a responders at 158 mg/kg [1] of 48%. It also gave a selectivity ratio [3] of 8.2, an ED50 [4] of 182 mg/kg and a TD50 at 24 h ([5]; administered orally, fasted, 24 h after administration, read-out: Ulcerogenicity UD50) of 31 mg/kg. The LD50 at 504 h [6] was 1500 mg/kg and the “Inhibition of peripheral prostaglandin biosynthesis” value [7] was “inhibitor of peripheral prostaglandin biosynthesis”.

Molecule Cc1oncc1C(=O)N1CCCCC1 [Example 1, N-(5-Methyl-4-isoxazolylcarbonyl)-piperidine] has an ED50 [1] of 45 mg/kg, a responders at 158 mg/kg [1] of 83% and an ED50 [4] of 85 mg/kg. The “Reduction in fever in comparison with Paracetamol” value ([8]; 50 mg/kg oral versus Paracetamol 100 mg/kg oral) was “both more powerful and clearly lasts longer than that of the comparison product Paracetamol”, the “Reduction in body temperature at 60 min” value ([8]; 50 mg/kg) was 1.3 °C and the “Reduction in body temperature at 120 min” value ([8]; 50 mg/kg) was 1.6 °C. For the same molecule, the “Reduction in body temperature at 180 min” value ([8]; 50 mg/kg) was 1.3 °C, the “Reduction in body temperature at 240 min” value ([8]; 50 mg/kg) was 0.8 °C and the “Reduction in body temperature at 60 min” value ([8]; 100 mg/kg) was 2.0 °C. For the same molecule, the “Reduction in body temperature at 120 min” value ([8]; 100 mg/kg) was 2.0 °C, the “Reduction in body temperature at 180 min” value ([8]; 100 mg/kg) was 1.5 °C and the “Reduction in body temperature at 240 min” value ([8]; 100 mg/kg) was 1.1 °C. The TD50 at 24 h [5] was over 400 mg/kg, the “Lesions of the mucous membrane” value [9] was “no lesions of the mucous membrane were detected” and the IC50 ([10]; Sus scrofa, potassium chloride-induced spasms, read-out: ED50 (inhibition of spasms), concentration) was 410 µg/mL (≈ 2110 µM).

In the case of CCc1oncc1C(=O)N1CCCCC1 [Example 2, N-(5-Ethyl-4-isoxazolylcarbonyl)-piperidine], the responders at 158 mg/kg [1] was 83%.

Work on Cc1oncc1C(=O)N1CCCC1 [Example 3, N-(5-Methyl-4-isoxazolylcarbonyl)-pyrrolidine] yielded a responders at 158 mg/kg [1] of 83%.

In the case of Cc1oncc1C(=O)N1CCC(C)CC1 [Example 4, 4-Methyl-1-(5-methyl-4-isoxazolylcarbonyl)-piperidine], the responders at 158 mg/kg [1] was 67%.

In the case of Cc1oncc1C(=O)N1CCSCC1 [Example 5, N-(5-Methyl-4-isoxazolylcarbonyl)-thiomorpholine], the responders at 158 mg/kg [1] was 59%.

Cc1oncc1C(=O)N1CCC(O)CC1 [Example 6, 4-Hydroxy-1-(5-methyl-4-isoxazolylcarbonyl)-piperidine] gave a responders at 158 mg/kg [1] of 50%.

Work on O=C(c1cnoc1)N1CCCCC1 [Example 7, N-(4-Isoxazolylcarbonyl)-piperidine] yielded a responders at 158 mg/kg [1] of 50%.

O=C(c1cnoc1C(F)(F)F)N1CCCCC1 [Example 8, N-(5-Trifluoromethyl-4-isoxazolylcarbonyl)-piperidine] gave a responders at 158 mg/kg [1] of 75%.

Molecule CCCc1oncc1C(=O)N1CCCCC1 [Example 9, N-(5-Propyl-4-isoxazolylcarbonyl)-piperidine] has a responders at 158 mg/kg [1] of 67%.

For Cc1oncc1C(=O)N1CCOCC1 [Example 10, N-(5-Methyl-4-isoxazolylcarbonyl)-morpholine], the responders at 158 mg/kg [1] was 42%.

With CC(=O)Nc1ccc(O)cc1 [Paracetamol, reference compound] the ED50 [1] was 155 mg/kg, the responders at 158 mg/kg [1] was 50% and the ED50 [4] was 334 mg/kg. For the same molecule, the “Reduction in body temperature at 60 min” value ([8]; 100 mg/kg) was 1.3 °C, the “Reduction in body temperature at 120 min” value ([8]; 100 mg/kg) was 1.1 °C and the “Reduction in body temperature at 180 min” value ([8]; 100 mg/kg) was 0.4 °C. For the same molecule, the “Reduction in body temperature at 240 min” value ([8]; 100 mg/kg) was 0 °C, the TD50 at 24 h [5] was over 400 mg/kg and the “Inhibiting effect on spasms” value ([10]; potassium chloride) was “no inhibiting effect on spasms”. For the same molecule, the “Suitability for treating pain of spastic origin” value [11] was “unsuitable for treating pain of spastic origin”.
